Where two headings read alike, the source gives them in different places.
Experiments:
[1] = system: T. cruzi (Tulahuen strain) intracellular amastigote parasite cells; experiment: T. cruzi in-vitro growth inhibition assay, amastigotes co-cultured in NIH/3T3 fibroblasts; format: cell-based; details: Trypanosoma cruzi, NIH3T3, co-cultured within NIH/3T3 fibroblast cells, triplicate
Description: T. cruzi (Tulahuen strain) intracellular amastigote parasite cells co-cultured within NIH/3T3 mammalian fibroblast cells were tested for in-vitro growth inhibition from each of Samples 1-4. […] Samples 1, 3, and 4 had IC50 values>40 μM. The methods used for producing cultures of T. cruzi cells and mammalian cells in addition to the methods of performing T. cruzi in-vitro inhibition assays were previously described by Andriani and colleagues (20). All biological experimentation was carried out at the Anti-Infectives Screening Core Service Center at New York University School of Medicine, Department of Microbiology.

[2] = molecular target: T1, T. cruzi glucokinase (TcGlcK) (Trypanosoma cruzi, UniProt Q4E4E1); experiment: Two-enzyme coupled colorimetric glucokinase activity assay (G6PDH/NADPH), TcGlcK; format: biochemical; details: for Glucokinase selectivity ratio = Ki (HsGlcK)/Ki (TcGlcK): higher values indicate better selectivity toward TcGlcK
T1 construct: precedes the start methionine and the 9-residue segment VGKKQKAQL at the C-terminal region was not included; made in house; host or cells: E. coli BL21(DE3)
T1 sequence (Q4E4E1 entry or part of it): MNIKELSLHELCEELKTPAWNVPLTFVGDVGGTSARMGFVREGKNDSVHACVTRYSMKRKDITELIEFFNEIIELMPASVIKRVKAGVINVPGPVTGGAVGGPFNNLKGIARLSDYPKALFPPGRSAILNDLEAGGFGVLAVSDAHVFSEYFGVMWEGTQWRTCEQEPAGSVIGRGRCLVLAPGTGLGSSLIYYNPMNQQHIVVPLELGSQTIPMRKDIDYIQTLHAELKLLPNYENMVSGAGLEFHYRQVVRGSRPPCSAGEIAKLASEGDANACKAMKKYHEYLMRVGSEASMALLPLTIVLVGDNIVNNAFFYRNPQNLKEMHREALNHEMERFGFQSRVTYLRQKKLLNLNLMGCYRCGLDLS
Description: (§1) Enzymatic activity of glucokinase from T. cruzi and H. sapiens were both performed using a similar protocol but had minor modifications. In general, a two-enzyme coupled colorimetric assay was performed, as previously described (4). The assay is based on the formation of NADPH (λmax≈340 nm; ϵ340=6,220 M^−1 cm^−1) (5). In the 1st step of the assay, glucokinase/hexokinase in the presence of Mg^2+, ATP, and D-glucose react to form glucose-6-phosphate (G-6-P) and ADP. In the 2nd step, glucose-6-phosphate dehydrogenase (G6PDH) in the presence of the formed G-6-P and NADP^+ react to form 6-phosphogluconolactone and NADPH. All measurements were performed in triplicate at 22° C.
TcGlcK assays used purified enzyme (0.12 μM for the monomer (0.0051 mg/mL)) that was used in the reaction mixtures, which were carried out with S. cerevisiae G6PDH (0.0064 mg/mL) in an assay buffer [50 mM triethanolamine (pH 7.6), 7.95 mM MgCl2, 0.55 mM ATP, 0.55 mM NADP^+] contained substrate ([D-glucose] ranged from 0.2-15.0 mM) and inhibitor ([BENZ-GlcN] ranged from 0-20 μM; [CBZ-GlcN] ranged from 0-10 μM; [HPOP-GlcN] ranged from 0-10 μM; and [DBT-GlcN] ranged from 0-20 μM). Reactions were performed at room temperature (22° C.) and were terminated after 120 sec (optimal time) using 90 μL of 1.5 M EDTA (pH 8.0). The EDTA solution was prepared from the tetrasodium salt. For quantification of NADPH, UV-visible spectrophotometric absorbance readings were recorded at 338 nm (λ) with an Agilent 8453 UV-visible spectrophotometer exactly 1 min after solutions were treated with the EDTA solution. Concentration of NADPH was determined through Beer's Law using the molar absorptivity of 6,220 M^−1 cm^−1.

[3] = molecular target: T2, Homo sapiens glucokinase (hexokinase IV) (HsGlcK) (Homo sapiens, UniProt P35557); experiment: Two-enzyme coupled colorimetric glucokinase activity assay (G6PDH/NADPH), HsGlcK; format: biochemical; details: measurements in triplicate, 22° C., substrate D-glucose, compounds tested as racemic mixtures (n ≥ 2), read-out: Ki versus substrate, HsGlcK
T2 construct: precedes residue K12 (N-terminal segment M1-A11 of HsGlcK was not included); made in house; host or cells: E. coli BL21(DE3)
T2 sequence (P35557 12-457 limits assumed): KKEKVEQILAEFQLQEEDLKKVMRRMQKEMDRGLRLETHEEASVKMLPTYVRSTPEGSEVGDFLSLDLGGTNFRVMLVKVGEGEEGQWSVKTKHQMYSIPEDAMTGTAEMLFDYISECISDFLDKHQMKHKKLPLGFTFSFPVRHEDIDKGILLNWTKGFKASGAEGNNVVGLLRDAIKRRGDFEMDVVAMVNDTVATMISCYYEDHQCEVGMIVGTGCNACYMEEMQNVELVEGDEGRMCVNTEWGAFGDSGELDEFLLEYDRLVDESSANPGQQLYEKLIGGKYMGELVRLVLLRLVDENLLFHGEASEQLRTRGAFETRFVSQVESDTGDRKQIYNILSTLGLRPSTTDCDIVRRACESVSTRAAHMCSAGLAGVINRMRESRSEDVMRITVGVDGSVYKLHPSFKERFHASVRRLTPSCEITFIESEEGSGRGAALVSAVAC
Description: as §1
HsGlcK assays were performed at room temperature and used the same protocol implemented for TcGlcK (see above) except that the reactions were terminated after 600 sec (optimum time) with 90 μL of 1.5 M EDTA (pH 8.0) and the reaction mixtures had slight modification. Briefly, DTT, which reduces disulfide bonds was added to the stock solution aliquot of HsGlcK on the day of the experiment (e.g. 1.0 μL of 20 mM DTT was mixed with 99.0 μL of 1.0 mg/mL HsGlcK) and was allowed to pre-equilibrate at 4° C. for 30 min prior to running assay reactions. Purified HsGlcK (0.15 μM for the monomer or 0.0077 mg/mL) and S. cerevisiae G6PDH (0.0064 mg/mL) in an assay buffer [50 mM triethanolamine (pH 7.6), 7.95 mM MgCl2, 5.0 mM ATP, 0.55 mM […], 1.0% (v/v) DMSO, 1.0 mM DTT, 5.0 mM KCl] contained substrate ([D-glucose] ranged from 5.0-50.0 mM) and inhibitor ([BENZ-GlcN] ranged from 0-500 μM; [CBZ-GlcN] ranged from 0-500 μM; and [HPOP-GlcN] ranged from 0-500 μM). DBT-GlcN was not used in the inhibition enzymatic assays because this compound absorbs light at the wavelength of NADPH (338 nm) at the concentrations needed for any reasonable inhibition of HsGlcK.

[4] = colorimetric assay, measurements in triplicate, 22° C., substrate D-glucose, compounds tested as racemic mixtures (n ≥ 2), read-out: Ki versus substrate, TcGlcK

Row | SMILES | IC50 [1] | Ki [2, 4] | Ki [3] | Ki [2] | Glucokinase selectivity ratio = Ki (HsGlcK)/Ki (TcGlcK) [2]
1 | O=C(N[C@H]1C(O)O[C@H](CO)[C@@H](O)[C@@H]1O)OCC1=Cc2ccccc2S1(=O)=O (mixture of isomers) [DBT-GlcN, 2-[[1,1-dioxobenzo[b]thiophen-2-yl]methyloxocarbonylamino]-2-deoxy-D-glucosamine] | > 40 µM | 4100 ± 300 nM |  |  | 
2 | O=C(CCc1ccc(O)cc1)N[C@H]1C(O)O[C@H](CO)[C@@H](O)[C@@H]1O (mixture of isomers) [HPOP-GlcN, 2-[[3-(4-hydroxyphenyl)-1-oxopropyl]amino]-2-deoxy-D-glucosamine] | > 40 µM |  | 242 ± 97 µM | 1300 ± 600 nM | 186
3 | O=C(N[C@H]1C(O)O[C@H](CO)[C@@H](O)[C@@H]1O)c1ccccc1 (stereo partly drawn) [BENZ-GlcN, 2-benzamido-2-deoxy-D-glucopyranose] | 16.08 ± 0.16 µM | 32000 ± 26000 nM | 376 ± 196 µM |  | 12
4 | O=C(N[C@H]1C(O)O[C@H](CO)[C@@H](O)[C@@H]1O)OCc1ccccc1 (mixture of isomers) [CBZ-GlcN, 2-N-carboxybenzyl-2-deoxy-D-glucosamine] | > 40 µM |  | 174 ± 50 µM | 710 ± 50 nM | 245

Reference: patent US9956240B2, “Therapeutic monosaccharide-based inhibitors of hexokinase and glucokinase for parasitic diseases, along with methods of their formation and use” (University of South Carolina, priority 2014, dated 2018)
